Measurements taken from patent US20260224573A1, “CRYSTAL FORM OF COMPOUND, AND PREPARATION METHOD AND USE THEREOF” (FELICAMED BIOTECHNOLOGY CO., LTD., priority 2023, published 2026).
Where two headings read alike, the source gives them in different places.

Test: Pharmacokinetics of free crystal form A in Beagle dogs
Format: in vivo
Conditions: for MRT last: read-out: MRT0-t; for bioavailability: from average AUC0-t after dose correction, read-out: F (oral bioavailability)
Description: All the animals in this experiment were randomly divided into 4 groups (3 dogs/sex/group). The animals in the group A, the group B, and the group D were fasted before administration, and the animals in the group C were fasted before the first administration and the last administration. All the animals were fasted for at least 12 h before administration, and food was resumed 4 h after administration. All the animals had free access to water and food during the experiment. The animals in the group A were intravenously injected with the drug at 2 mg/kg, and blood samples were collected from the jugular vein before and 0.033 […], and 24 h after administration. The animals in the group B and the group D received single intragastric administration of the drugs at 2 mg/kg and 20 mg/kg, respectively, and blood samples were collected from the jugular vein before and 0.083 […], and 24 h after administration. […] Blood samples were collected from the jugular vein before the first administration and the seventh administration and 0.083 […], and 24 h after administration. Blood samples were collected from the jugular vein before administration and 0.5 h after administration from the second administration to the sixth administration. The sample collected before the second administration was the sample collected 24 h after the first administration. The blood samples from the animals were collected through the jugular vein, with a blood sample volume of 0.5 mL/time. All collected whole blood samples were placed in centrifuge tubes containing ethylene diamine tetraacetic acid potassium salt (EDTA-K2), and the centrifuge tubes were turned upside down to allow the anticoagulant and blood to be fully mixed. All the samples were placed on wet ice before centrifugation and centrifuged at 1524 g for 10 min to separate plasma. The plasma samples were transferred to new centrifuge tubes and stored at -90° C. to […] until analysis. The drug concentration in the plasma of each Beagle dog was determined by liquid chromatography with tandem mass spectrometry (LC-MS/MS). The obtained plasma concentration data was analyzed by using the pharmacokinetic processing software WinNonlin 8.0 with a non-compartmental model to calculate relevant pharmacokinetic parameters.

[1] = both sexes, Beagle, dog, plasma, po, 2 mg/kg, i.g. 2 mg/kg single, male/female mean
[2] = both sexes, Beagle, dog, plasma, po, 6 mg/kg, i.g. 6 mg/kg once a day, seventh administration, male/female mean
[3] = both sexes, Beagle, dog, plasma, po, 6 mg/kg, i.g. 6 mg/kg, first administration, male/female mean
[4] = both sexes, Beagle, dog, plasma, po, 20 mg/kg, i.g. 20 mg/kg single, male/female mean
[5] = both sexes, Beagle, dog, plasma, po, i.g. 2 mg/kg single, male/female mean
[6] = both sexes, Beagle, dog, plasma, po, i.g. 6 mg/kg once a day, seventh administration, male/female mean
[7] = both sexes, Beagle, dog, plasma, po, i.g. 6 mg/kg, first administration, male/female mean
[8] = both sexes, Beagle, dog, plasma, po, i.g. 20 mg/kg single, male/female mean
[9] = both sexes, beagle, dog, plasma, iv, 2 mg/kg, i.v. 2 mg/kg, male and female, mean
[10] = both sexes, beagle, dog, plasma, iv, i.v. 2 mg/kg, male and female, mean

CC[S@@](=N)(=O)C[C@H]1CC[C@H](N(C)c2ncnc3[nH]ccc23)CC1 [Free crystal form A]
AUC(0-t) [1]: 8750 ng·h/mL | MRT last [1]: 5.37 h | AUC(0-t) [2]: 26600 ng·h/mL | MRT last [2]: 5.12 h | AUC(0-t) [3]: 30000 ng·h/mL | MRT last [3]: 5.49 h | AUC(0-t) [4]: 101000 ng·h/mL | MRT last [4]: 5.2 h | bioavailability (both sexes, Beagle, dog, plasma, po, i.g. 2 mg/kg single): 88% | Cmax [5]: 1350 ng/mL | Tmax [5]: 1.33 h | half-life [5]: 3.89 h | Cmax at 7 days [6]: 4540 ng/mL | Tmax at 7 days [6]: 0.75 h | half-life at 7 days [6]: 4.1 h | bioavailability (both sexes, Beagle, dog, plasma, po, i.g. 6 mg/kg, first administration): 100% | Cmax [7]: 4710 ng/mL | Tmax [7]: 0.958 h | half-life [7]: 4.2 h | bioavailability (both sexes, Beagle, dog, plasma, po, i.g. 20 mg/kg single): 101% | Cmax [8]: 13300 ng/mL | Tmax [8]: 0.792 h | half-life [8]: 4.17 h | AUC(0-t) [9]: 9940 ng·h/mL | MRT last [9]: 4.3 h | C0 [10]: 4250 ng/mL | clearance [10]: 3.4 mL/min/kg | half-life [10]: 3.68 h | Vd (both sexes, beagle, dog, plasma, iv, i.v. 2 mg/kg, male and female, mean, read-out: VdSS): 0.939 L/kg | drug accumulation (i.g. 6 mg/kg for 7 consecutive days): No significant drug accumulation | male-to-female ratio of AUC0-t (i.v. 2 mg/kg): 0.748 | male-to-female ratio of C0 (i.v. 2 mg/kg): 0.758 | clinical observation (i.v. 2 mg/kg, i.g. 2, 6, 20 mg/kg, before and after administration and blood sampling): no obvious abnormalities were found
